Reference: patent publication US20240010640A1, “ANTAGONISTS OF THE MUSCARINIC ACETYLCHOLINE RECEPTOR M4” (Vanderbilt University, priority 2020, published 2024)

Experiments:
Human M4 = biological target: T1, Human M4 (Homo sapiens, UniProt P08173); assay: mAChR M4 cell-based functional assay (calcium flux, antagonist mode); conditions: for IC50: Human M4/Gqi5 CHO-K1 cells, decrease of acetylcholine response; for Emin (% ACh maximum at 30 μM): Human M4
T1 construct: Human or rat M4 cDNA, along with the chimeric G protein Gqi5, were transfected into Chinese hamster ovary (CHO-K1) cells; expressed in transfected cells; host or cells: CHO-K1 (Chinese hamster ovary, ATCC), stably expressing M4 and Gqi5
T1 sequence (P08173 1-479): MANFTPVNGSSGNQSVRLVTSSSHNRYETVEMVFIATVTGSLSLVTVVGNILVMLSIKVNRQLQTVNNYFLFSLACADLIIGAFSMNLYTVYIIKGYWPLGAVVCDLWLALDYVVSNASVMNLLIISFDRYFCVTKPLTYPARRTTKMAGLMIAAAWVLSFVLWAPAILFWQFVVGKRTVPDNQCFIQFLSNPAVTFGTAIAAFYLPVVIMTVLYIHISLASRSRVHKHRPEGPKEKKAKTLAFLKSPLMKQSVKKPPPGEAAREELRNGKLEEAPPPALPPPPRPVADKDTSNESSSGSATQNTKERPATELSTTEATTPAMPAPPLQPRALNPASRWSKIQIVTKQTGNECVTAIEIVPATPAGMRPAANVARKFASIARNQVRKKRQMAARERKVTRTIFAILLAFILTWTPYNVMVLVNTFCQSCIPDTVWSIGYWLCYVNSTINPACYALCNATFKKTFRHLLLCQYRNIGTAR
Description: Human or rat M4 cDNA, along with the chimeric G protein Gqi5, were transfected into Chinese hamster ovary (CHO-K1) cells purchased from the American Type Culture Collection using Lipofectamine2000. M4/Gqi5/CHO cells were grown in Ham's F-12 medium containing 10% heat-inactivated fetal bovine serum (FBS), 20 mM HEPES, 500 μg/mL G418 sulfate, and 200 μg/mL Hygromycin B.
For high throughput measurement of agonist-evoked increases in intracellular calcium, CHO-K1 cells stably expressing muscarinic receptors were plated in growth medium lacking G418 and hygromycin at 15,000 cells/20 μL/well in Greiner 384-well black-walled, tissue culture (TC)-treated, clear-bottom plates (VWR). Cells were incubated overnight at 37° C. and 5% CO2. The next day, cells were washed using an ELX 405 (BioTek) with assay buffer; the final volume was then aspirated to 20 μL. Next, 20 μL of a 2.3 μM stock of Fluo-4/acetoxymethyl ester (Invitrogen, Carlsbad, CA), prepared as a 2.3 mM stock in DMSO and mixed in a 1:1 ratio with 10% (w/v) Pluronic F-127 and diluted in assay buffer, was added to the wells and the cell plates were incubated for 50 min at 37° C. and 5% CO2. Dye was removed by washing with the ELX 405 and the final volume was aspirated to 20 μL. Compound master plates were formatted in a 10 point concentration-response curve (CRC) format (1:3 dilutions) in 100% DMSO with a starting concentration of 10 or 1 mM using a BRAVO liquid handler (Agilent). Test compound CRCs were then transferred to daughter plates (240 nL) using the Echo acoustic plate reformatter (Labcyte, Sunnyvale, CA) and then diluted into assay buffer (40 μL) to a 2× stock using a Thermo Fisher Combi (Thermo Fisher Scientific, Waltham, MA).
Calcium flux was measured using the Functional Drug Screening System (FDSS) 6000 or 7000 (Hamamatsu Corporation, Tokyo, Japan) as an increase in the fluorescent static ratio. Compounds were applied to cells (20 μL, 2×) using the automated system of the FDSS at 2 seconds into the protocol and the data were collected at 1 Hz. At 143 s, 10 μL of an EC20 concentration of the muscarinic receptor agonist acetylcholine was added (5×), followed by the addition of 12 μL of an […] concentration of acetylcholine at the 268 s time point (5×). Agonist activity was analyzed as a concentration-dependent increase in calcium mobilization upon compound addition. Positive allosteric modulator activity was analyzed as a concentration-dependent increase in the EC20 acetylcholine response. Antagonist activity was analyzed as a concentration-dependent decrease in the EC80 acetylcholine response; for the purposes of the tables herein, an IC50 (inhibitory concentration 50) was calculated as a concentration-dependent decrease of the response elicited by an […] concentration of acetylcholine. Concentration-response curves were generated using a four-parameter logistical equation in XLFit curve fitting software (IDBS, Bridgewater, NJ) for Excel (Microsoft, Redmond, WA) or Prism (GraphPad Software, Inc., San Diego, CA) or the Dotmatics software platform (Dotmatics, Bishop's Stortford, UK).
Compounds were synthesized as described above. Activity (IC50 and Emin) was determined in the mAChR M4 cell-based functional assay as described above and the data are shown in Table 1.

M4 knockout mice = conditions: but not the other four mAChR subtypes; cited from earlier work
[1] = test system: catalepsy induced by the DA receptor antagonist haloperidol; conditions: cited from earlier work

IC50 (Human M4) [nM] | Emin (% ACh maximum at 30 μM) (Human M4) [%] | Compound | locomotor-activating effects (M4 knockout mice) | reduction of haloperidol-induced catalepsy ([1]; M4 KO mice) | reversal of haloperidol-induced catalepsy ([1]; WT mice)
11.4 | 4 | [2H]C([2H])(C1CCOCC1)N1C[C@H]2C[C@H](Nc3ccc(-c4cc(F)c(=O)n(C)c4)nn3)C[C@H]2C1 [A18, 3-fluoro-1-methyl-5-(6-(((3aR,5s,6aS)-2-((tetrahydro-2H-pyran-4-yl)methyl-d2)octahydrocyclopenta[c]pyrrol-5-yl)amino)pyridazin-3-yl)pyridin-2(1H)-one] | – | – | –
3370 | 10 | Cn1cccc(-c2cnc(N[C@H]3C[C@@H]4CN(CC5CCOCC5)C[C@@H]4C3)nc2)c1=O [B1, 1-methyl-3-(2-(((3aR,5s,6aS)-2-((tetrahydro-2H-pyran-4-yl)methyl)octahydrocyclopenta[c]pyrrol-5-yl)amino)pyrimidin-5-yl)pyridin-2(1H)-one] | – | – | –
– | – | CN1[C@@H]2C[C@@H](OC(=O)[C@H](CO)c3ccccc3)C[C@H]1[C@@H]1O[C@@H]12 [scopolamine] | dramatically reduced | ineffective | completely reversed
